Measured values published in patent US6342079B1, “Primary intermediate for use in oxidative hair dyeing” (Bristol-Myers Squibb Company, priority 2000, dated 2002).

What was measured:
[1] = Storage stability of the free base; assay type: physicochemical; settings: for long term storage stability: extended storage
Solubility in water = assay type: physicochemical
[2] = as described in U.S. Pat. Nos. 5,599,353 and 5,538,516; cited from earlier work

Row | stability in free base form compared with 2-(2-hydroxyethyl)-p-phenylenediamine [1] | long term storage stability [1] | solubility in water (Solubility in water) | Compound | sensitization potential compared with p-phenylenediamine (Sensitization potential) | sensitization potential [2]
1 | significantly more stable | excellent | excellent | CC(O)c1cc(N)ccc1N (stereo not drawn) [1-(2,5-Diaminophenyl)ethanol, 1-(2,5-diaminophenyl)ethanol] | much less susceptible to cause sensitization | –
2 | – | not sufficiently stable | – | Nc1ccc(N)c(CCO)c1 [2-(2-hydroxyethyl)-p-phenylenediamine, reference compound] | – | –
3 | – | – | – | Nc1ccc(N)cc1 [p-phenylenediamine] | – | strong
